Data on 23 molecules can be found in publication PMC8657982, “Overlap and Specificity in the Substrate Spectra of Human Monoamine Transporters and Organic Cation Transporters 1, 2, and 3” (International Journal of Molecular Sciences, 2021).

The target of series [1] is SERT (Homo sapiens, UniProt P31645). Briefly: Uptake into HEK293 cells overexpressing SERT (uptake ratio and concentration-dependent uptake).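 On Uptake Ratio by Transporter SERT: ratio of uptake in SERT cells over empty-vector control cells.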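 On all read-outs here: incubation at 37 °C, intracellular compound quantified by HPLC-MS/MS after cell lysis, uptake normalized to total protein measured by bicinchoninic acid assay.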 The note with it: for Clint ± SEM: SERT, intrinsic clearance, quotient of vmax and Km.
Chain of SERT (P31645 whole entry): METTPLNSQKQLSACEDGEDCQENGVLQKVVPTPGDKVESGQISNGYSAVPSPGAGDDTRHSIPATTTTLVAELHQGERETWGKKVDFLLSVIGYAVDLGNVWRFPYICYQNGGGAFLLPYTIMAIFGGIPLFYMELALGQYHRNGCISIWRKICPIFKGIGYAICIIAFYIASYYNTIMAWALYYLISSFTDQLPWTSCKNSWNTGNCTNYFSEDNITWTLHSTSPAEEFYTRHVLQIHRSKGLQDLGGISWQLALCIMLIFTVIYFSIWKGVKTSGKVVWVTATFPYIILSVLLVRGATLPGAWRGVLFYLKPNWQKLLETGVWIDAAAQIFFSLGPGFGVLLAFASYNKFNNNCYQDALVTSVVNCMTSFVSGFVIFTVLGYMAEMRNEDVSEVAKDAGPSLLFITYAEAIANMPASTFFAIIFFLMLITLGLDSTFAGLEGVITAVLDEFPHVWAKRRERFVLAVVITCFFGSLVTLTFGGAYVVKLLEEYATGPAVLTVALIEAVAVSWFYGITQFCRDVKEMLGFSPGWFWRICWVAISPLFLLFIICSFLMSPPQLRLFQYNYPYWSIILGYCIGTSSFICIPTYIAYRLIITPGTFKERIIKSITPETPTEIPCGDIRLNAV
In series [2] the target is DAT (Homo sapiens, UniProt Q01959). Briefly: Uptake into HEK293 cells overexpressing DAT (uptake ratio and concentration-dependent uptake). The conditions noted are these: intrinsic clearance, quotient of vmax and Km.
Chain of DAT (Q01959 whole entry): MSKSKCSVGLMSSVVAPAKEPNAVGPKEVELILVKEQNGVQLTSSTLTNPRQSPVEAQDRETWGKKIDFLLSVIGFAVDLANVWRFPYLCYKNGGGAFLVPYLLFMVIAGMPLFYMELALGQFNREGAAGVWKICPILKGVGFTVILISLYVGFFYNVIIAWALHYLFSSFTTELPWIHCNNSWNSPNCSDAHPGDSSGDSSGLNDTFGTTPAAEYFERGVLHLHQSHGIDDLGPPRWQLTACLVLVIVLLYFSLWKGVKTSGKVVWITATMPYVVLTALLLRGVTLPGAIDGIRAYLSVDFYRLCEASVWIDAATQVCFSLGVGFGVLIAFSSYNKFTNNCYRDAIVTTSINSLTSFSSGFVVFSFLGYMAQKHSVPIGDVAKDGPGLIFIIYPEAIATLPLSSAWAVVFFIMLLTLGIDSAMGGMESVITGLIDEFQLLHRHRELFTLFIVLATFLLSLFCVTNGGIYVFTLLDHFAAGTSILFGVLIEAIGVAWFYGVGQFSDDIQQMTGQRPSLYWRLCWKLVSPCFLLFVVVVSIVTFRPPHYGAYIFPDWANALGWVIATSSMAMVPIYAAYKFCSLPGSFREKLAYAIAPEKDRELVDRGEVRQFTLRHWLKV
Series [3] has as its target NET (Homo sapiens, UniProt P23975). Nature of the series: Uptake into HEK293 cells overexpressing NET (uptake ratio and concentration-dependent uptake). The conditions noted are these: intrinsic clearance, quotient of vmax and Km.
Substrate in series [4]: N=C(N)NCc1cccc(I)c1
Nature of the series: cells, lysate or membranes. The note with it: concentration-dependent net uptake, Michaelis–Menten, pH 7.4.

Substrate in series [5]: CNCCc1c[nH]c2ccc(O)cc12
Briefly: cells, lysate or membranes. The conditions noted are these: concentration-dependent net uptake, Michaelis–Menten, pH 7.4.

Substrate in series [6]: NCCc1c[nH]c2ccc(O)cc12
Nature of the series: cells, lysate or membranes. The conditions noted are these: concentration-dependent net uptake, Michaelis–Menten, pH 7.4.

Chain of NET (P23975 whole entry): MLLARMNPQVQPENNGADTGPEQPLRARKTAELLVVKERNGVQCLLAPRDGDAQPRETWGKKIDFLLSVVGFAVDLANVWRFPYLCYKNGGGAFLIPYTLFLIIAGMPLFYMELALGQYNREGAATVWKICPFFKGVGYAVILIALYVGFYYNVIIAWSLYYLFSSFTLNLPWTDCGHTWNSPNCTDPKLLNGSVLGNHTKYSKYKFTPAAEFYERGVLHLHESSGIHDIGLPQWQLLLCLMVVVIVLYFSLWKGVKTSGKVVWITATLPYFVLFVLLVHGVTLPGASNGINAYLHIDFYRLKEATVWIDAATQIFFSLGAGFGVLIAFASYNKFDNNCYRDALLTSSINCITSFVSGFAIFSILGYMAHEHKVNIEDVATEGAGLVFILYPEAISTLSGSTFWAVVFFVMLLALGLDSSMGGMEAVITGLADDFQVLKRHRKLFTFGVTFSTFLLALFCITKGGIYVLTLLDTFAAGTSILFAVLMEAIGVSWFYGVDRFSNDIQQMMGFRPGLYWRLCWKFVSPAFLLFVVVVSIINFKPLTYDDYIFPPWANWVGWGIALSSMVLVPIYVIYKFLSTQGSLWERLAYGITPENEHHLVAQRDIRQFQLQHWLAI

Turning to `CNCC(O)c1ccc(O)cc1` (stereo not shown) [Synephrine], the “Uptake Ratio by Transporter SERT” value in series [1] is listed as 1.53.

Turning to `NCc1ccc(O)cc1` [4-Hydroxybenzylamine], in series [1], the “Uptake Ratio by Transporter SERT” value is on record as 1.55.

Regarding `NCCc1ccc(O)c(O)c1` [Dopamine], in series [2], the “Clint ± SEM” value was 78.9 mL × g Protein^−1 × min^−1.

For `NCC(O)c1ccccc1` (stereo not shown) [Bisnorephedrine], the “Uptake Ratio by Transporter SERT” value in series [1] amounted to 1.45.

For the molecule `COc1cc(CCN)ccc1O` [3-Methoxy-p-tyramine], the “Uptake Ratio by Transporter SERT” value in series [1] is recorded as 4.45.

As for `CNCCc1ccc(O)cc1` [N-Methyl p-tyramine], in series [1], the “Uptake Ratio by Transporter SERT” value amounted to 2.46.

Turning to `CNCC(O)c1ccccc1` (stereo not shown) [Halostachine], the “Uptake Ratio by Transporter SERT” value in series [1] worked out at 2.26.

Turning to `COc1ccc2[nH]cc(CCN)c2c1` [5-Methoxy-Tryptamine], in series [1], the “Uptake Ratio by Transporter SERT” value is on record as 3.46.

Take `NCCc1cccc(O)c1` [m-Tyramine]: the “Uptake Ratio by Transporter SERT” value in series [1] was determined as 3.08.

Take `COc1ccc(CCN)cc1O` [4-Methoxy-m-tyramine]: in series [1], the “Uptake Ratio by Transporter SERT” value worked out at 3.86.

Turning to `NC[C@H](O)c1ccc(O)c(O)c1` [(-)-Norepinephrine], in series [3], the “Clint ± SEM” value is on record as 47.8 mL × g Protein^−1 × min^−1.

As for `CNCC(O)c1ccc(O)c(OC)c1` (stereo not shown) [Metanephrine], in series [1], the “Uptake Ratio by Transporter SERT” value is 1.97.

Take `NCCc1c[nH]c2ccccc12` [Tryptamine]: in series [1], the “Uptake Ratio by Transporter SERT” value is listed as 4.88 and the “Clint ± SEM” value is given as 22.0 mL × g Protein^−1 × min^−1.

On to `COc1cc(C(O)CN)ccc1O` (stereo not shown) [Normetanephrine], for which the “Uptake Ratio by Transporter SERT” value in series [1] is 1.91.

Regarding `CNCCc1ccc(O)c(O)c1` [Deoxyepinephrine], the “Uptake Ratio by Transporter SERT” value in series [1] came out at 13.89.

In the case of `CN(C)CCc1ccc(O)cc1` [Hordenine], the “Uptake Ratio by Transporter SERT” value in series [1] is on record as 2.02.

For `CNCCc1ccccc1` [N-Methylphenylethylamine], the “Uptake Ratio by Transporter SERT” value in series [1] worked out at 2.29.

As to `NC1CC1c1ccccc1` (stereo not shown) [Tranylcypromin, reference compound], the “Uptake Ratio by Transporter SERT” value in series [1] is reported as 2.37.

Consider `CN[C@@H]1CCc2[nH]c3ccc(C(N)=O)cc3c2C1` [(R)-Frovatriptan, reference compound], for which the “Clint ± SEM” value in series [1] was 38.48 mL × g Protein^−1 × min^−1.

`C[n+]1ccc(-c2ccccc2)cc1` [MPP+, reference compound]: the “Uptake Ratio by Transporter SERT” value in series [1] is reported as 50.42.

B1: OCT3 (Homo sapiens) (protein)
chain: MPSFDEALQRVGEFGRFQRRVFLLLCLTGVTFAFLFVGVVFLGTQPDHYWCRGPSAAALAERCGWSPEEEWNRTAPASRGPEPPERRGRCQRYLLEAANDSASATSALSCADPLAAFPNRSAPLVPCRGGWRYAQAHSTIVSEFDLVCVNAWMLDLTQAILNLGFLTGAFTLGYAADRYGRIVIYLLSCLGVGVTGVVVAFAPNFPVFVIFRFLQGVFGKGTWMTCYVIVTEIVGSKQRRIVGIVIQMFFTLGIIILPGIAYFIPNWQGIQLAITLPSFLFLLYYWVVPESPRWLITRKKGDKALQILRRIAKCNGKYLSSNYSEITVTDEEVSNPSFLDLVRTPQMRKCTLILMFAWFTSAVVYQGLVMRLGIIGGNLYIDFFISGVVELPGALLILLTIERLGRRLPFAASNIVAGVACLVTAFLPEGIAWLRTTVATLGRLGITMAFEIVYLVNSELYPTTLRNFGVSLCSGLCDFGGIIAPFLLFRLAAVWLELPLIIFGILASICGGLVMLLPETKGIALPETVDDVEKLGSPHSCKCGRNKKTPVSRSHL
Turning to B1, in series [4] (other: OCT3), the Km (usually the substrate concentration at which the rate is half of its maximum) is 10.5 ± 1.9 µM; the Vmax (as a rule, the top rate of the reaction or transport when substrate is in excess) was determined as 0.00169 µmol/min/mg; the Vmax/Km stood at 161 µL/min/mg. For the same molecule, in series [5] (other: OCT3), the Km was found to be 18.78 ± 12.42 µM and the Vmax is 181.7 pmol × mg Protein^−1 × min^−1.

B2: OCT1 (Homo sapiens) (protein)
chain: MPTVDDILEQVGESGWFQKQAFLILCLLSAAFAPICVGIVFLGFTPDHHCQSPGVAELSQRCGWSPAEELNYTVPGLGPAGEAFLGQCRRYEVDWNQSALSCVDPLASLATNRSHLPLGPCQDGWVYDTPGSSIVTEFNLVCADSWKLDLFQSCLNAGFLFGSLGVGYFADRFGRKLCLLGTVLVNAVSGVLMAFSPNYMSMLLFRLLQGLVSKGNWMAGYTLITEFVGSGSRRTVAIMYQMAFTVGLVALTGLAYALPHWRWLQLAVSLPTFLFLLYYWCVPESPRWLLSQKRNTEAIKIMDHIAQKNGKLPPADLKMLSLEEDVTEKLSPSFADLFRTPRLRKRTFILMYLWFTDSVLYQGLILHMGATSGNLYLDFLYSALVEIPGAFIALITIDRVGRIYPMAMSNLLAGAACLVMIFISPDLHWLNIIIMCVGRMGITIAIQMICLVNAELYPTFVRNLGVMVCSSLCDIGGIITPFIVFRLREVWQALPLILFAVLGLLAAGVTLLLPETKGVALPETMKDAENLGRKAKPKENTIYLKVQTSEPSGT
As for B2, in series [4] (other: OCT1), the Michaelis constant (Km) is listed as 16.6 ± 3.7 µM, the maximal velocity (Vmax) came to 0.0023 µmol/min/mg and the Vmax/Km was 138 µL/min/mg. Also, in series [6] (other: OCT1), the Km is recorded as 235.6 µM and the Vmax is 5161 pmol × mg Protein^−1 × min^−1. Also, in series [5] (other: OCT1), the Michaelis-Menten constant (Km) was determined as 27.78 ± 9.19 µM and the Vmax is 2237 pmol × mg Protein^−1 × min^−1.

B3: OCT2 (Homo sapiens) (protein)
chain: MPTTVDDVLEHGGEFHFFQKQMFFLLALLSATFAPIYVGIVFLGFTPDHRCRSPGVAELSLRCGWSPAEELNYTVPGPGPAGEASPRQCRRYEVDWNQSTFDCVDPLASLDTNRSRLPLGPCRDGWVYETPGSSIVTEFNLVCANSWMLDLFQSSVNVGFFIGSMSIGYIADRFGRKLCLLTTVLINAAAGVLMAISPTYTWMLIFRLIQGLVSKAGWLIGYILITEFVGRRYRRTVGIFYQVAYTVGLLVLAGVAYALPHWRWLQFTVSLPNFFFLLYYWCIPESPRWLISQNKNAEAMRIIKHIAKKNGKSLPASLQRLRLEEETGKKLNPSFLDLVRTPQIRKHTMILMYNWFTSSVLYQGLIMHMGLAGDNIYLDFFYSALVEFPAAFMIILTIDRIGRRYPWAASNMVAGAACLASVFIPGDLQWLKIIISCLGRMGITMAYEIVCLVNAELYPTFIRNLGVHICSSMCDIGGIITPFLVYRLTNIWLELPLMVFGVLGLVAGGLVLLLPETKGKALPETIEEAENMQRPRKNKEKMIYLQVQKLDIPLN
B3: in series [4] (other: OCT2), the Km is recorded as 13.3 ± 2.4 µM, the Vmax came to 0.00204 µmol/min/mg and the Vmax/Km stood at 152 µL/min/mg. In addition, in series [6] (other: OCT2), the Km is reported as 685.6 µM and the Vmax is reported as 31565 pmol × mg Protein^−1 × min^−1. For the same molecule, in series [5] (other: OCT2), the Km was 253.9 ± 54.98 µM and the Vmax is 11918 pmol × mg Protein^−1 × min^−1.
